Two compounds from PubChem BioAssay (NCI) can be followed below.

Some test systems named below: BT-549 breast; CAKI-1 renal; HCT-15 colon; M19-MEL melanoma; MDA-N; SK-MEL-2 melanoma; SK-MEL-28 melanoma; SNB-19 CNS; SNB-75 CNS; TK-10 renal.
Common to all, as to assay: growth of human tumour cells (NCI), 48 h

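Values below derive from 48-hour exposures of cells grown in 96-well plates, with endpoints linearly interpolated between the two concentrations bracketing the appropriate inhibition level. Here, GI50 denotes the concentration required for 50% inhibition of growth. At the TGI there is no net growth.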 Bounds are passed on as bounds.

`C/C(=N\NC(=S)N1CCN(c2ccccn2)CC1)c1ccccn1`: the TGI was found to be 0.577 µM in the assay with BT-549 breast; 15.5 µM in the assay with CAKI-1 renal; 14.5 µM in the assay on HCT-15 colon; 2.94 µM with M19-MEL melanoma; 13.3 µM in the assay with MDA-N; 12.9 µM in the assay with SK-MEL-2 melanoma. In addition, the TGI came to 19.3 µM in the assay on SK-MEL-28 melanoma, 15 µM in the assay on SNB-19 CNS, 17.6 µM in the assay on SNB-75 CNS and 13.9 µM with TK-10 renal. Besides, the GI50 in the assay with CAKI-1 renal was 0.301 µM; with SK-MEL-2 melanoma it was 0.231 µM; in the assay on SNB-19 CNS it was 0.183 µM.
With `CC1CCC2C(C)C(=O)OC3OC4(C)CCC1C32OO4` (configuration not stated), the TGI in the assay on BT-549 breast, in the assay with CAKI-1 renal, with HCT-15 colon, with M19-MEL melanoma, with MDA-N and in the assay with SK-MEL-2 melanoma was above 100 µM throughout. Besides, the TGI in the assay on SK-MEL-28 melanoma was above 100 µM; in the assay on SNB-19 CNS, above 100 µM; in the assay on SNB-75 CNS, above 97.2 µM; in the assay on TK-10 renal, above 100 µM. Also, the GI50 in the assay on MDA-N, with SK-MEL-28 melanoma, in the assay with SNB-19 CNS and in the assay with TK-10 renal was above 100 µM throughout.
